Data set [1] has as its system carrageenin-induced paw edema. Briefly: Effect on carrageenin-induced paw edema. Type of data set: in vivo, male Wistar rats. As to conditions: po; rat, 100 mg/kg p.o., 1 hour before 1% carrageenin; paw volume 3 hours after injection; read-out: Suppression rate for paw swelling, (a) carrageenin-induced edema. Here is the method:
a) Effect on carrageenin-induced paw edema
Male Wistar rats weighing 150 to 160 g (n=3-5) were used in the experiment. After the right hind paw volume was measured with the plethysmograph (TK-101; Unicom Co., Ltd.), the test compound (100 mg/kg) was orally administered. After one hour, 0.1 ml of 1 % carrageenin (λ-carrageenin; PICNIN-A®, Zushi Kagaku Co., Ltd.) was subcutaneously injected into the right hind paw footpad. Three hours after the injection of carrageenin, the right hind paw volume was measured and the swelling rate was determined by the following equation 1. [formula]
Vt: the right hind paw volume measured 3 hours after the injection of carrageenin
Vo: the right hind paw volume measured prior to the injection of carrageenin
The suppression rate was calculated by the following equation 2. [formula]
Swt: the swelling rate of the group administered with the test compound
Swc: the swelling rate of the control group administered with no test compound
A general note: Carrageenan injected into the paw causes an acute inflammation.

The subject of data set [2] is zymosan-induced paw edema. The experiment in a line: Effect on zymosan-induced paw edema. The following applies: rat, 100 mg/kg p.o., 1 hour before 1% zymosan; paw volume 4 hours after injection. It is filed as in vivo, male Wistar rats. Here is the method: b) Effect on zymosan-induced paw edema
The experiment was carried out in the same manner as in the carrageenin-induced paw edema test except that 1% zymosan (Zymosan A®; Sigma Chemical Co.) was used in place of 1% carrageenin and the right hind paw volume was measured 4 hours after the injection of the edema-inducing substance instead of 3 hours. The swelling rate and the suppression rate were calculated by equation 1 and equation 2, respectively.

Data set [3] deals with arachidonic acid-induced paw edema. Briefly: Arachidonic acid-induced paw edema. Type of data set: in vivo, male Wistar rats. As to conditions: rat, 100 mg/kg p.o., 1 hour before 0.5% arachidonic acid; paw volume one hour after injection. The method, then:
c) Arachidonic acid-induced paw edema
The experiment was carried out in the same manner as in the carrageenin-induced paw edema test except that 0.5% arachidonic acid was used in place of 1% carrageenin and the right hind paw volume was measured one hour after the injection of the edema-inducing substance instead of 3 hours. The swelling rate and the suppression rate were calculated by equation 1 and equation 2, respectively.

Data set [4] relates to Type III allergic reaction-induced pleurisy. Briefly: Effect on Type III allergic reaction-induced pleurisy. Type of data set: in vivo, male Wistar rats. As to conditions: po, 4.5 h, rat, 100 mg/kg p.o., four and a half hours after induction of pleurisy. Here is the method:
d) Effect on Type III allergic reaction-induced pleurisy
IgG was purified from rabbit anti-OA serum prepared in advance by the method of Koda et al. [Folia Pharmacol., Japon 66, 237, (1970)] in the following manner.
A saturated solution of ammonium sulfate (half volume of the serum) was added to the anti-OA serum, and the mixture was left for one hour at 4° C. The precipitate was taken by centrifugation (3,000 rpm, 30 min, 4° C.) and dissolved in phosphate buffered saline of Dulbecco. Then, ammonium sulfate fractionation was carried out three times in the same manner as above, whereby a purified IgG fraction was obtained.
Male Wistar rats weighing 225-250 g were pre-bred for several days and fasted overnight prior to the experiment The test compound (100 mg/kg) was orally administered to the animals, and after 30 minutes, IgG of rabbit anti-OA (0.2 ml, 5 mg protein/ml) was injected into the pleural cavity of the animals under anesthesia with ether. Thirty minutes after the injection of IgG, OA (albumin egg grade III; Sigma Chemical Co.) was intravenously injected into the animals as an inducer of pleurisy. After two hours, Evans Blue (25 mg/kg) was intravenously injected, and four and a half hours after the induction of pleurisy, the animals were killed by bleeding.
Then, an exudate in the pleural cavity was obtained, and the volume of the exudate was measured. The pleural cavity was rinsed with 5 ml of physiological saline and the rinsings were added to the exudate. The number of infiltrated cells in the mixture was counted and the volume of the dye in the mixture was determined by the absorption at 625 nm [Agent Actions., 25, 326 (1988)]. The suppression rates for the volume of the exudate, the number of infiltrated cells and the volume of the dye in the pleural cavity were calculated by the following equation 3. [formula]
S.V: the value obtained with the group administered with the test compound and in which pleurisy is induced
N.V: the value obtained with the group in which pleurisy is not induced
P.V: the value obtained with the group administered with no test compound and in which pleurisy is induced

Data set [5] deals with male dd-mice. As to conditions: mouse, in vivo, 10080 min; for Acute toxicity (MLD, Minimum Lethal Dose) i.p.: ip; for Acute toxicity (MLD, Minimum Lethal Dose) p.o.: po. Here is the method: The test compounds were orally or intraperitoneally administered to male dd-mice weighing 20 to 25 g. MLD (Minimum Lethal Dose) was determined by observing the mortality for seven days after the administration.

Setting [6] is: Evans Blue 25 mg/kg i.v., absorption at 625 nm, read-out: Suppression rate, volume of dye in the exudate.
The mark [7] stands for this setting: read-out: Suppression rate, number of infiltrated cells in the exudate.
Setting [8] is: read-out: Suppression rate, volume of exudate.

We go through 3 molecules from patent US5126341A, “Anti-inflammatory 1,8-naphthyridin-2-one derivatives” (Kyowa Hakko Kogyo Co., Ltd., priority 1990, dated 1992).

Molecules are shown by their SMILES. Where two headings read alike, the source gives them in different places.

For `O=C(Nc1cccnc1)c1c(O)c2cccnc2n(-c2ccccc2)c1=O` [Compound 4, 4-Hydroxy-2-oxo-1-phenyl-N-(3-pyridyl)-1H-1,8-naphthyridine-3-carboxamide], the inhibition in vivo at 100 mg/kg in data set [1] worked out at 40%; in data set [4] (setting [6]) it was 54.4%; in data set [4] (setting [7]), 30.5%; in data set [4] (setting [8]) it was 75.3%. For the same molecule, in data set [2], the “Suppression rate for paw swelling, (b) zymosan-induced edema” value amounted to 37.8%. The “Suppression rate for paw swelling, (c) arachidonic acid-induced edema” value in data set [3] is recorded as 34.9%. Also, the “Acute toxicity (MLD, Minimum Lethal Dose) i.p.” value in data set [5] is given as above 100 mg/kg. Besides, in data set [5], the “Acute toxicity (MLD, Minimum Lethal Dose) p.o.” value was above 300 mg/kg.

As to `O=C(Nc1ccncc1)c1c(O)c2cccnc2n(-c2ccccc2)c1=O` [Compound 5, 4-Hydroxy-2-oxo-1-phenyl-N-(4-pyridyl)-1H-1,8-naphthyridine-3-carboxamide], the inhibition in vivo at 100 mg/kg stood at 38.5% in data set [1], 66.5% in data set [4] (setting [6]), 58.6% in data set [4] (setting [7]) and 100% in data set [4] (setting [8]). In addition, the “Suppression rate for paw swelling, (b) zymosan-induced edema” value in data set [2] turned out to be 38.4%. Moreover, the “Suppression rate for paw swelling, (c) arachidonic acid-induced edema” value in data set [3] stood at 48.0%. For the same molecule, the “Acute toxicity (MLD, Minimum Lethal Dose) i.p.” value in data set [5] is above 100 mg/kg. For the same molecule, the “Acute toxicity (MLD, Minimum Lethal Dose) p.o.” value in data set [5] is reported as 300 mg/kg.

Consider `O=C(NCc1ccncc1)c1c(O)c2cccnc2n(-c2ccccc2)c1=O` [Compound 28, 4-Hydroxy-2-oxo-1-phenyl-N-(4-pyridylmethyl)-1H-1,8-naphthyridine-3-carboxamide], for which the inhibition in vivo at 100 mg/kg in data set [1] is 27.3%. For the same molecule, the “Suppression rate for paw swelling, (c) arachidonic acid-induced edema” value in data set [3] was determined as 41.6%. In data set [5], the “Acute toxicity (MLD, Minimum Lethal Dose) i.p.” value is above 100 mg/kg and the “Acute toxicity (MLD, Minimum Lethal Dose) p.o.” value is on record as above 300 mg/kg.
